According to patent publication US5071848A, “Tricyclic quinoline antineoplastic agents” (Abbott Laboratories, priority 1989, dated 1991):

Test system: DNA topoisomerase II
Experiment: DNA Breakage Assay: topoisomerase II-mediated DNA breakage (linearized 32P-labeled PBR 322 plasmid, agarose gel)
Type: biochemical, calf
Design: key to Topoisomerase II-mediated DNA breakage, extent of breakage: SB: strong breakage; MB: moderate breakage; WB: weak breakage
Conditions: for Topoisomerase II-mediated DNA breakage, extent of breakage: at the concentration given; for Topoisomerase II-mediated DNA breakage, Concentration: concentration of compound which cleaves the DNA to smaller fragments, 30 minutes incubation
Description: Antitumor activity was assayed using the DNA Breakage Assay described below.
The DNA breakage assay requires two major reagents: DNA topoisomerase II and radiolabeled DNA. DNA topoisomerase II (topo II) was isolated from calf thymus as described by B. D. Holligan, et al. in J. Biol. Chem., 260, 2475-2482 (1985). Pure enzyme or partially purified extracts enriched in topo II activity may be used. PBR 322 plasmid was used as the DNA substrate. This plasmid, which is isolated in the closed circular form, is first linearized using, a restriction enzyme which cuts the plasmid in only one place. The newly exposed ends of the plasmid are then labeled with the radionuclide, 32P, using standard techniques described by T. Maniatis, et al. in "Molecular Cloning", Cold Spring Harbor Press, p. 115 (1982).
The enzyme and the radiolabeled DNA are added together first, then drug is added. After an incubation period of 30 minutes, the mixtures are quenched using 1% SDS. The mixtures are then subjected to agarose gel electrophoresis which separates the full length, linear substrate DNA from any small fragments that might be formed as a consequence of drug action. Smaller fragments run with a higher mobility. The distribution of the DNA species in the gel is assessed by autoradiography as described by T. Maniatis, et al. in "Molecular Cloning", Cold Spring Harbor Press, p. 115 (1982).
DNA breakage activity is assessed based on the level of substrate lost, the level of DNA appearing as smaller pieces running faster in the gel, and the distribution of these smaller pieces in the gel. The last criterion is important since drug-induced DNA cleavage that is enzyme-mediated fragmentation results in specific banding patterns due to the fact that the enzyme binds to specific sequences along the DNA molecule. A definite banding pattern is thus indicative of topo II-mediated cleavage and correlates well with anti-tumor activity.

Structure (SMILES) | Topoisomerase II-mediated DNA breakage, extent of breakage | Topoisomerase II-mediated DNA breakage, Concentration [µg/mL]
CNC1CCN(c2cc3c(cc2F)c(=O)c2c(=O)[nH]sc2n3C2CC2)C1 (stereo not drawn) [Example 25] | WB | 64
O=c1[nH]sc2c1c(=O)c1cc(F)c(N3CCC(O)C3)cc1n2C1CC1 (stereo not drawn) [Example 23] | WB | 32 to 128
CCn1c2s[nH]c(=O)c2c(=O)c2cc(F)c(N3CCC(N)C3)c(F)c21 (stereo not drawn) [Example 17] | WB | 32 to 64
CCn1c2cc3c(cc2c(=O)c2c(=O)[nH]sc21)OCO3 [Example 29, 9-Ethyl-6,7-methylenedioxy-2,3,4,9-tetrahydroisothiazolo[5,4-b]quinoline-3,4-dione] | WB | 128
O=c1[nH]sc2c1c(=O)c1cc(F)c(N3CCCC3)c(F)c1n2C1CC1 [Example 32] | WB | 64
CC1CN(c2cc3c(cc2F)c(=O)c2c(=O)[nH]sc2n3C2CC2)CCN1C (stereo not drawn) [Example 22] | WB | 128
CCn1c2s[nH]c(=O)c2c(=O)c2cc(F)c(N3CCNC(C)C3)c(F)c21 (stereo not drawn) [Example 15] | MB | 128
O=c1[nH]sc2c1c(=O)c1cc(F)c(N3CCNCC3)cc1n2C1CC1 [Example 19, 9-Cyclopropyl-6-fluoro-7-(1-piperazinyl)-2,3,4,9-tetrahydroisothiazolo[5,4-b]quinoline-3,4-dione] | MB | 64
CCn1c2s[nH]c(=O)c2c(=O)c2cc(F)c(N3CCN(C)CC3)c(F)c21 [Example 16] | MB | 32 to 64
